According to ChEMBL document CHEMBL1150522, “Preparation and antifungal activity of fusacandin analogs: C-6 sidechain esters” (1996):
Converted amounts (≈) assume the structure as drawn.

How the values were obtained:
Type in all cases: functional
Candida albicans [1] = experiment: Minimum inhibitory concentration against Candida albicans (CCH 442) in the presence of serum
Candida albicans [2] = experiment: Minimum inhibitory concentration against Candida albicans (ATCC 10231) in the absence of serum.
Candida albicans [3] = experiment: Minimum inhibitory concentration against Candida albicans (ATCC 10231) in the presence of serum
Candida albicans [4] = experiment: Minimum inhibitory concentration against Candida albicans (ATCC 38247) in the absence of serum.
Candida albicans [5] = experiment: Minimum inhibitory concentration against Candida albicans (ATCC 38247) in the presence of serum
Candida albicans [6] = experiment: Minimum inhibitory concentration against Candida albicans (ATCC 62376) in the absence of serum.
Candida albicans [7] = experiment: Minimum inhibitory concentration against Candida albicans (ATCC 62376) in the presence of serum
Candida albicans [8] = experiment: Minimum inhibitory concentration against Candida albicans (CCH 442) in the absence of serum.
Candida albicans [9] = experiment: Minimum inhibitory concentration against Candida albicans (579a) in the absence of serum.
Candida albicans [10] = experiment: Minimum inhibitory concentration against Candida albicans (579a) in the presence of serum

MIC (Candida albicans [1]) | MIC (Candida albicans [2]) | MIC (Candida albicans [3]) | MIC (Candida albicans [4]) | MIC (Candida albicans [5]) | MIC (Candida albicans [6]) | MIC (Candida albicans [7]) | MIC (Candida albicans [8]) | MIC (Candida albicans [9]) | MIC (Candida albicans [10]) | SMILES
0.78 µg/mL | 12.5 µg/mL (≈ 11.5 µM) | 0.78 µg/mL | 25 µg/mL (≈ 23.1 µM) | 3.12 µg/mL | 12.5 µg/mL (≈ 11.5 µM) | 0.78 µg/mL | 6.25 µg/mL (≈ 5.77 µM) | 12.5 µg/mL (≈ 11.5 µM) | 1.56 µg/mL | CCCCC/C=C/C=C/[C@@H](O)C/C=C/C=C/C(=O)O[C@@H]1[C@@H](O)[C@H](c2c(O)cc(O)cc2CO)O[C@H](CO)[C@H]1O[C@@H]1O[C@H](COC(=O)c2ccc(-c3ccc(OC)cc3)cc2)[C@H](O)[C@H](O)[C@H]1O[C@@H]1O[C@H](CO)[C@H](O)[C@H](O)[C@H]1O
0.78 µg/mL | 12.5 µg/mL (≈ 11.9 µM) | 0.78 µg/mL | 25 µg/mL (≈ 23.7 µM) | 1.56 µg/mL | 12.5 µg/mL (≈ 11.9 µM) | 0.78 µg/mL | 12.5 µg/mL (≈ 11.9 µM) | 12.5 µg/mL (≈ 11.9 µM) | 0.78 µg/mL | CCCCC/C=C/C=C/[C@@H](O)C/C=C/C=C/C(=O)O[C@@H]1[C@@H](O)[C@H](c2c(O)cc(O)cc2CO)O[C@H](CO)[C@H]1O[C@@H]1O[C@H](COC(=O)c2ccc(-c3ccccc3)cc2)[C@H](O)[C@H](O)[C@H]1O[C@@H]1O[C@H](CO)[C@H](O)[C@H](O)[C@H]1O
3.12 µg/mL | > 100 µg/mL | 3.12 µg/mL | > 100 µg/mL | 1.56 µg/mL | > 100 µg/mL | 1.56 µg/mL | > 100 µg/mL | > 100 µg/mL | 0.78 µg/mL | CCCCC/C=C/C=C/[C@@H](O)C/C=C/C=C/C(=O)O[C@@H]1[C@@H](O)[C@H](c2c(O)cc(O)cc2CO)O[C@H](CO)[C@H]1O[C@@H]1O[C@H](COC(=O)c2ccc(CCCC)cc2)[C@H](O)[C@H](O)[C@H]1O[C@@H]1O[C@H](CO)[C@H](O)[C@H](O)[C@H]1O
0.78 µg/mL | 12.5 µg/mL (≈ 11.1 µM) | 1.56 µg/mL | 25 µg/mL (≈ 22.1 µM) | 3.12 µg/mL | 12.5 µg/mL (≈ 11.1 µM) | 0.78 µg/mL | 12.5 µg/mL (≈ 11.1 µM) | 12.5 µg/mL (≈ 11.1 µM) | 0.78 µg/mL | CCCCC/C=C/C=C/[C@@H](O)C/C=C/C=C/C(=O)O[C@@H]1[C@@H](O)[C@H](c2c(O)cc(O)cc2CO)O[C@H](CO)[C@H]1O[C@@H]1O[C@H](COC(=O)c2ccc(-c3ccc(-c4ccccc4)cc3)cc2)[C@H](O)[C@H](O)[C@H]1O[C@@H]1O[C@H](CO)[C@H](O)[C@H](O)[C@H]1O
0.78 µg/mL | 12.5 µg/mL (≈ 11.2 µM) | 1.56 µg/mL | 25 µg/mL (≈ 22.5 µM) | 0.78 µg/mL | 12.5 µg/mL (≈ 11.2 µM) | 0.78 µg/mL | 6.25 µg/mL (≈ 5.62 µM) | 12.5 µg/mL (≈ 11.2 µM) | 0.78 µg/mL | CCCCC/C=C/C=C/[C@@H](O)C/C=C/C=C/C(=O)O[C@@H]1[C@@H](O)[C@H](c2c(O)cc(O)cc2CO)O[C@H](CO)[C@H]1O[C@@H]1O[C@H](COC(=O)c2ccc(-c3ccc(OC(C)C)cc3)cc2)[C@H](O)[C@H](O)[C@H]1O[C@@H]1O[C@H](CO)[C@H](O)[C@H](O)[C@H]1O
0.78 µg/mL | 25 µg/mL (≈ 23.1 µM) | 0.78 µg/mL | 25 µg/mL (≈ 23.1 µM) | 0.78 µg/mL | 25 µg/mL (≈ 23.1 µM) | 0.39 µg/mL | 12.5 µg/mL (≈ 11.6 µM) | 25 µg/mL (≈ 23.1 µM) | 0.2 µg/mL | CCCCC/C=C/C=C/[C@@H](O)C/C=C/C=C/C(=O)O[C@@H]1[C@@H](O)[C@H](c2c(O)cc(O)cc2CO)O[C@H](CO)[C@H]1O[C@@H]1O[C@H](COC(=O)c2ccc(-c3ccc(CC)cc3)cc2)[C@H](O)[C@H](O)[C@H]1O[C@@H]1O[C@H](CO)[C@H](O)[C@H](O)[C@H]1O

Further lines, the compound ahead of its results:

SMILES | MIC (Candida albicans [1]) | MIC (Candida albicans [2]) | MIC (Candida albicans [3]) | MIC (Candida albicans [4]) | MIC (Candida albicans [5]) | MIC (Candida albicans [6]) | MIC (Candida albicans [7]) | MIC (Candida albicans [8]) | MIC (Candida albicans [9]) | MIC (Candida albicans [10])
CCCCC/C=C/C=C/[C@@H](O)C/C=C/C=C/C(=O)O[C@@H]1[C@@H](O)[C@H](c2c(O)cc(O)cc2CO)O[C@H](CO)[C@H]1O[C@@H]1O[C@H](COC(=O)c2ccccc2)[C@H](O)[C@H](O)[C@H]1O[C@@H]1O[C@H](CO)[C@H](O)[C@H](O)[C@H]1O | 12.5 µg/mL | > 100 µg/mL | 12.5 µg/mL | > 100 µg/mL | 6.25 µg/mL | > 100 µg/mL | 12.5 µg/mL | > 100 µg/mL | > 100 µg/mL | 6.25 µg/mL
CCCCC/C=C/C=C/[C@@H](O)C/C=C/C=C/C(=O)O[C@@H]1[C@@H](O)[C@H](c2c(O)cc(O)cc2CO)O[C@H](CO)[C@H]1O[C@@H]1O[C@H](COC(=O)c2cccc(-c3ccc(OC)cc3)c2)[C@H](O)[C@H](O)[C@H]1O[C@@H]1O[C@H](CO)[C@H](O)[C@H](O)[C@H]1O | 1.56 µg/mL | 50 µg/mL (≈ 46.2 µM) | 1.56 µg/mL | 100 µg/mL (≈ 92.3 µM) | 1.56 µg/mL | 25 µg/mL (≈ 23.1 µM) | 3.12 µg/mL | 100 µg/mL (≈ 92.3 µM) | 50 µg/mL (≈ 46.2 µM) | 0.78 µg/mL
CCCCC/C=C/C=C/[C@@H](O)C/C=C/C=C/C(=O)O[C@@H]1[C@@H](O)[C@H](c2c(O)cc(O)cc2CO)O[C@H](CO)[C@H]1O[C@@H]1O[C@H](COC(=O)c2ccc(Oc3ccccc3)cc2)[C@H](O)[C@H](O)[C@H]1O[C@@H]1O[C@H](CO)[C@H](O)[C@H](O)[C@H]1O | 3.12 µg/mL | 50 µg/mL (≈ 46.8 µM) | 3.12 µg/mL | 50 µg/mL (≈ 46.8 µM) | 3.12 µg/mL | > 100 µg/mL | 3.12 µg/mL | 100 µg/mL (≈ 93.5 µM) | 50 µg/mL (≈ 46.8 µM) | 1.56 µg/mL
CCCCC/C=C/C=C/[C@@H](O)C/C=C/C=C/C(=O)O[C@@H]1[C@@H](O)[C@H](c2c(O)cc(O)cc2CO)O[C@H](CO)[C@H]1O[C@@H]1O[C@H](COC(C)=O)[C@H](O)[C@H](O)[C@H]1O[C@@H]1O[C@H](CO)[C@H](O)[C@H](O)[C@H]1O | > 100 µg/mL | > 100 µg/mL | > 100 µg/mL | > 100 µg/mL | > 100 µg/mL | > 100 µg/mL | > 100 µg/mL | > 100 µg/mL | > 100 µg/mL | > 100 µg/mL
CCCCC/C=C/C=C/[C@@H](O)C/C=C/C=C/C(=O)O[C@@H]1[C@@H](O)[C@H](c2c(O)cc(O)cc2CO)O[C@H](CO)[C@H]1O[C@@H]1O[C@H](COC(=O)c2cc3ccccc3c3ccccc23)[C@H](O)[C@H](O)[C@H]1O[C@@H]1O[C@H](CO)[C@H](O)[C@H](O)[C@H]1O | 3.12 µg/mL | 50 µg/mL (≈ 46.4 µM) | 3.12 µg/mL | 100 µg/mL (≈ 92.8 µM) | 6.25 µg/mL | 100 µg/mL (≈ 92.8 µM) | 3.12 µg/mL | 100 µg/mL (≈ 92.8 µM) | 50 µg/mL (≈ 46.4 µM) | 3.12 µg/mL
CCCCC/C=C/C=C/[C@@H](O)C/C=C/C=C/C(=O)O[C@@H]1[C@@H](O)[C@H](c2c(O)cc(O)cc2CO)O[C@H](CO)[C@H]1O[C@@H]1O[C@H](COC(=O)c2cccc3ccccc23)[C@H](O)[C@H](O)[C@H]1O[C@@H]1O[C@H](CO)[C@H](O)[C@H](O)[C@H]1O | 3.12 µg/mL | 50 µg/mL (≈ 48.7 µM) | 3.12 µg/mL | 50 µg/mL (≈ 48.7 µM) | 1.56 µg/mL | 100 µg/mL (≈ 97.4 µM) | 6.25 µg/mL | 50 µg/mL (≈ 48.7 µM) | 50 µg/mL (≈ 48.7 µM) | 3.12 µg/mL
CCCCC/C=C/C=C/[C@@H](O)C/C=C/C=C/C(=O)O[C@@H]1[C@@H](O)[C@H](c2c(O)cc(O)cc2CO)O[C@H](CO)[C@H]1O[C@@H]1O[C@H](COC(=O)c2ccc(-c3ccc(OCc4ccccc4)cc3)cc2)[C@H](O)[C@H](O)[C@H]1O[C@@H]1O[C@H](CO)[C@H](O)[C@H](O)[C@H]1O | 3.12 µg/mL | 50 µg/mL (≈ 43.1 µM) | 1.56 µg/mL | 25 µg/mL (≈ 21.6 µM) | 3.12 µg/mL | 25 µg/mL (≈ 21.6 µM) | 1.56 µg/mL | 12.5 µg/mL (≈ 10.8 µM) | 50 µg/mL (≈ 43.1 µM) | 0.78 µg/mL
CCCCC/C=C/C=C/[C@@H](O)C/C=C/C=C/C(=O)O[C@@H]1[C@@H](O)[C@H](c2c(O)cc(O)cc2CO)O[C@H](CO)[C@H]1O[C@@H]1O[C@H](COC(=O)CCCCCCCCC)[C@H](O)[C@H](O)[C@H]1O[C@@H]1O[C@H](CO)[C@H](O)[C@H](O)[C@H]1O | 6.25 µg/mL | > 100 µg/mL | 12.5 µg/mL | > 100 µg/mL | 12.5 µg/mL | > 100 µg/mL | 12.5 µg/mL | > 100 µg/mL | > 100 µg/mL | 12.5 µg/mL
